Measured values as given in PubChem BioAssay AID1963841 (Molecular Pharmacology Branch, DTP, NCI, 2024).
pIC50: −log10 of the molar value. “And” between values parts separate entries of the source, which are not always exact repeats. Equal entries are not always repeated.

System: 439559-082-T-J2-PDC spheroid viability
Assay: Anticancer human tumor 439559-082-T-J2-PDC patient-derived colon adenocarcinoma cell line growth inhibition [POLQ]
Conditions: spheroids with HUVEC and MSC; for viability, T/C: stronger effect = lower value
Description: Multicellular complex tumor spheroid response to Polymerase (POL) inhibitors (novobiocin, ART-558, RP6685) in combination with a variety of drugs and investigational agents in selected tumor cell lines
The POL inhibitors (novobiocin, ART-558, and RP6685) were evaluated both individually and in combination with standard of care and investigational anticancer small molecules within a complex spheroid model of solid tumors. . Complex spheroids include a stromal component modeled by human endothelial cells (HUVEC) and fibroblasts modeled by human mesenchymal stem cells (MSCs). The concentration ranges selected for each drug and investigational agent were based upon clinically achievable concentrations if the clinical Cmax of the agent was known.
Compounds. The drugs and investigational agents: novobiocin (NSC847541), ART-558 (NSC835418), RP-6685 (NSC848927), peposertib (NSC802822), ceralasertib (NSC780249), elimusertib (NSC800525), camonsertib (NSC841442), AZD-1390 (NSC803789), olaparib (NSC753686), talazoparib (NSC767125), rucaparib (NSC756644), sotorasib (NSC818433), MRTX-1133 (NSC836407), SN-38 (NSC673596), topotecan (NSC609699), epotoside (NSC141540), doxorubicin (NSC123127), gemcitabine (NSC613327), 5-fluorouracil (NSC19893), paclitaxel (NSC125973), vemurafenib (NSC761431), MSA-2 (NSC828583), SN-011 (NSC837082), adavosertib (NSC754352), prexasertib (NSC758257), carboplatin (NSC241240) and oxaliplatin (NSC266046), were obtained from the National Cancer Institute (NCI) Developmental Therapeutics Program Chemical Repository (21). The FDA-approved anticancer drug set is available from the Developmental Therapeutics Program at https://dtp.cancer.gov/organization/dscb/obtaining/. […] The stock solutions were prepared in dimethyl sulfoxide (DMSO, Sigma-Aldrich, St. Louis, MO, cat. D2650), except for the platinum compounds which were prepared in saline (Quality Biological, Gaithersburg, MD, cat. 114-055-101), at 800-fold the tested concentration and stored at -70 degrees C prior to their use. All drugs and investigational agents were tested over a range starting from a high concentration at or near the clinical Cmax and decreasing in half-log increments. If the clinical Cmax for an agent had not been determined, the highest concentration tested was 10 microM, except for SN-38, which was tested at a high concentration of 1 microM.
Cell Culture. All cells were maintained in an incubator at 37 degrees C and 5% CO2 with 95% humidity. The PDC lines were cultured according to standard operating procedures established by the NCI PDMR (https://pdmr.cancer.gov). Table 3 of the manuscript, lists the cell lines along with the number of the three cell types plated to form the mct-spheroids and media for tumor cell growth. After thawing, all PDC lines, except 997537-175-T-J1-PDC and 415267-285-R-J2-PDC, were cultured in Matrigel-coated flasks prepared with a working solution of 1X Ham's F-12 nutrient mix, without supplementation (Thermo Fisher Scientific, cat. 11765054), 100 U/mL penicillin-streptomycin (Thermo Fisher Scientific, cat. 15140122), and 2.5% Matrigel (Corning Inc., Corning, NY, cat. 354248) for the first three passages. The two PDC lines 997537-175-T-J1-PDC and 415267-285-R-J2-PDC were cultured on uncoated flasks. The 857933-349-R-J2-PDC line was cultured in 6C/Colon 1B media containing advanced DMEM/F-12 (Thermo Fisher Scientific, cat. 12634028), 10 mM HEPES (Thermo Fisher Scientific, cat. 15630080), 1X GlutaMAX supplement (Thermo Fisher Scientific, cat. 35050061), 0.1 mg/mL primocin (InvivoGen, San Diego, CA, cat. ant-pm-2), 10% defined fetal bovine serum, heat inactivated (HyClone Laboratories Inc., Logan, UT, cat. SH30070.03HI), 50% L-WRN conditioned media (ATCC, cat. CRL-3276), 1.25 mM N-Acetyl-L-cysteine (Sigma-Aldrich, cat. A9165), 10 mM nicotinamide (Sigma-Aldrich, cat. N0636), 1X B-27 supplement (Thermo Fisher Scientific, cat. 17504044), 1X N-2 supplement (Thermo Fisher Scientific, cat. […]
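Note: spheroids exposed to compounds for seven days before readout.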
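Throughout, for viability, T/C: 100% = DMSO vehicle control viability.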

In the case of O=c1[nH]cc(F)c(=O)[nH]1, the viability, T/C (compound 0.0316 µM) was 94.6% and 117% and 96.9%, the viability, T/C (compound 0.1 µM) was 95% and 114% and 94.2% and the viability, T/C (compound 0.316 µM) was 83.6% and 86.3% and 81%. The viability, T/C (compound 1 µM) was 76.2% and 90.7% and 73%, the viability, T/C (compound 3.16 µM) was 71.1% and 87% and 72.8% and the viability, T/C (compound 10 µM) was 68.4% and 78.9% and 71.5%. It also gave a pIC50 (curve of compound) of under 5.00.
With C#Cc1c(F)ccc2cc(O)cc(-c3ncc4c(N5CC6CCC(C5)N6)nc(OCC56CCCN5CC(F)C6)nc4c3F)c12 (stereo unspecified) the viability, T/C (compound 0.0316 µM) was 98.3% and 86.1% and 91.5%, the viability, T/C (compound 0.1 µM) was 87.7% and 85.2% and 81.3% and the viability, T/C (compound 0.316 µM) was 72.3% and 64.9% and 72.9%. For the same compound, the viability, T/C (compound 1 µM) was 66.5% and 68.4% and 70.6%, the viability, T/C (compound 3.16 µM) was 59.8% and 69.2% and 61.3% and the viability, T/C (compound 10 µM) was 53% and 67.8% and 51%. For the same compound, the pIC50 (curve of compound) was under 5.00.
In the case of CCc1cc2c(N3CCc4c(cc(Cn5ccnc5)cc4-c4cn(C)nc4C(F)(F)F)C3=O)cc(C)nc2c(OC)n1, the viability, T/C (compound 0.0316 µM) was 105% and 93.7% and 95.3%, the viability, T/C (compound 0.1 µM) was 94.8% and 96.5% and 90.4% and the viability, T/C (compound 0.316 µM) was 94.4% and 95.2% and 87.4%. For the same compound, the viability, T/C (compound 1 µM) was 103% and 91.7% and 94.3%, the viability, T/C (compound 3.16 µM) was 99.1% and 101% and 92.2% and the viability, T/C (compound 10 µM) was 94.1% and 90.4% and 87.9%. For the same compound, the pIC50 (curve of compound) was under 5.00.
For CC1COCCN1c1cc(-c2ccnn2C)c2ccnc(-c3ccn[nH]3)c2n1 (stereo unspecified), the viability, T/C (compound 0.0316 µM) was 97.4% and 94.7% and 96.7%, the viability, T/C (compound 0.1 µM) was 69.8% and 71.2% and 83.1% and the viability, T/C (compound 0.316 µM) was 51.1% and 45.3% and 54.1%. The viability, T/C (compound 1 µM) was 46.9% and 43.4% and 49.2% and the viability, T/C (compound 10 µM) was 43.8% and 39.4% and 49.2%.
COc1cccc(OCCCN)c1-c1cc(Nc2cnc(C#N)cn2)n[nH]1 + Cc1cccc(N(C)C(=O)C2C(O)CCN2c2nc(C)cc(C(F)(F)F)c2C#N)c1 showed a pIC50 (curve of first compound, second compound 0.0316 µM) of 6.56, a pIC50 (curve of first compound, second compound 0.1 µM) of 6.50 and a pIC50 (curve of first compound, second compound 0.316 µM) of 6.52. It also gave a pIC50 (curve of first compound, second compound 1 µM) of 6.40, a pIC50 (curve of first compound, second compound 3.16 µM) of 6.54 and a pIC50 (curve of first compound, second compound 10 µM) of 6.82. The viability, T/C (second compound 0.0316 µM, first compound 0.00316 µM) was 99.3%, the viability, T/C (second compound 0.0316 µM, first compound 0.01 µM) was 99.7% and the viability, T/C (second compound 0.0316 µM, first compound 0.0316 µM) was 71%. For the same compound, the viability, T/C (second compound 0.0316 µM, first compound 0.1 µM) was 77.9%, the viability, T/C (second compound 0.0316 µM, first compound 0.316 µM) was 44.8% and the viability, T/C (second compound 0.0316 µM, first compound 1 µM) was 18.5%. For the same compound, the viability, T/C (second compound 0.1 µM, first compound 0.00316 µM) was 100%, the viability, T/C (second compound 0.1 µM, first compound 0.01 µM) was 74.7% and the viability, T/C (second compound 0.1 µM, first compound 0.0316 µM) was 71.1%. For the same compound, the viability, T/C (second compound 0.1 µM, first compound 0.1 µM) was 78.1%, the viability, T/C (second compound 0.1 µM, first compound 0.316 µM) was 49.5% and the viability, T/C (second compound 0.1 µM, first compound 1 µM) was 19.9%. It also gave a viability, T/C (second compound 0.316 µM, first compound 0.00316 µM) of 104%, a viability, T/C (second compound 0.316 µM, first compound 0.01 µM) of 83.8% and a viability, T/C (second compound 0.316 µM, first compound 0.0316 µM) of 84.8%. It also gave a viability, T/C (second compound 0.316 µM, first compound 0.1 µM) of 68.7%, a viability, T/C (second compound 0.316 µM, first compound 0.316 µM) of 51% and a viability, T/C (second compound 0.316 µM, first compound 1 µM) of 19.8%. The viability, T/C (second compound 1 µM, first compound 0.00316 µM) was 110%, the viability, T/C (second compound 1 µM, first compound 0.01 µM) was 94.2% and the viability, T/C (second compound 1 µM, first compound 0.0316 µM) was 82.5%. The viability, T/C (second compound 1 µM, first compound 0.1 µM) was 77.5%, the viability, T/C (second compound 1 µM, first compound 0.316 µM) was 64.2% and the viability, T/C (second compound 1 µM, first compound 1 µM) was 20.9%. It also gave a viability, T/C (second compound 3.16 µM, first compound 0.00316 µM) of 87.6%, a viability, T/C (second compound 3.16 µM, first compound 0.01 µM) of 102% and a viability, T/C (second compound 3.16 µM, first compound 0.0316 µM) of 81.7%. It also gave a viability, T/C (second compound 3.16 µM, first compound 0.1 µM) of 74.9%, a viability, T/C (second compound 3.16 µM, first compound 0.316 µM) of 48.1% and a viability, T/C (second compound 3.16 µM, first compound 1 µM) of 19.4%. It also gave a viability, T/C (second compound 10 µM, first compound 0.00316 µM) of 101%, a viability, T/C (second compound 10 µM, first compound 0.01 µM) of 86.9% and a viability, T/C (second compound 10 µM, first compound 0.0316 µM) of 94.5%. It also gave a viability, T/C (second compound 10 µM, first compound 0.1 µM) of 63.2%, a viability, T/C (second compound 10 µM, first compound 0.316 µM) of 25.1% and a viability, T/C (second compound 10 µM, first compound 1 µM) of 16.2%.
In the case of CCCS(=O)(=O)Nc1ccc(F)c(C(=O)c2c[nH]c3ncc(-c4ccc(Cl)cc4)cc23)c1F, the viability, T/C (compound 0.0316 µM) was 97.4% and 77.9% and 99.4%, the viability, T/C (compound 0.316 µM) was 102% and 105% and 90% and the viability, T/C (compound 1 µM) was 103% and 87.8% and 100%. The pIC50 (curve of compound) was < 5.00 and 5.11.
In the case of CCc1c2c(nc3ccc(O)cc13)-c1cc3c(c(=O)n1C2)COC(=O)[C@]3(O)CC, the viability, T/C (compound 0.00316 µM) was 95.8% and 83.5% and 94.6%, the viability, T/C (compound 0.01 µM) was 85% and 74.5% and 81% and the viability, T/C (compound 0.0316 µM) was 71.9% and 75.1% and 71.4%. For the same compound, the viability, T/C (compound 0.1 µM) was 72.1% and 79.6% and 64.2%, the viability, T/C (compound 0.316 µM) was 63.3% and 81% and 57.8% and the viability, T/C (compound 1 µM) was 40.5% and 58.2% and 35.7%. The pIC50 (curve of compound) was 6.20 and < 6.00 and 6.43.
CNCc1ccc(-c2[nH]c3cc(F)cc4c3c2CCNC4=O)cc1 was tested, and the viability, T/C (compound 0.0316 µM) was 95.3% and 101% and 103%, the viability, T/C (compound 0.1 µM) was 100% and 103% and 95.7% and the viability, T/C (compound 0.316 µM) was 102% and 96.3% and 92.9%. For the same compound, the viability, T/C (compound 1 µM) was 98.9% and 111% and 95.9%, the viability, T/C (compound 3.16 µM) was 108% and 124% and 107% and the viability, T/C (compound 10 µM) was 94.3% and 101% and 108%. For the same compound, the pIC50 (curve of compound) was under 5.00.
